ChEMBL document CHEMBL2062475, “Langkolide, a 32-membered macrolactone antibiotic produced by Streptomyces sp. Acta 3062” (J Nat Prod, 2012)
Activity calls are given as the source filed them. No cut-off for these calls is given here.

What was measured:
[1] = target: 3',5'-cyclic-AMP phosphodiesterase 4B (Homo sapiens, UniProt Q07343); experiment: Inhibition of human recombinant PDE4B2 by HTS cAMP assay
Bacillus subtilis = experiment: Antibacterial activity against Bacillus subtilis DSM 347 after 14 to 16 hrs by resazurin reduction assay; assay type: functional, organism-based
Xanthomonas campestris = experiment: Antibacterial activity against Xanthomonas campestris DSM 2405 after 14 to 16 hrs by resazurin reduction assay; assay type: functional, organism-based
[2] = target: Glycogen synthase kinase-3 beta (Homo sapiens, UniProt P49841); experiment: Inhibition of recombinant GSK3beta by KinaseGlo assay
Candida albicans = experiment: Antifungal activity against Candida albicans DSM 1386 after 14 to 16 hrs by resazurin reduction assay; assay type: functional, organism-based
Nakaseomyces glabratus = experiment: Antifungal activity against Candida glabrata DSM 6425 after 14 to 16 hrs by resazurin reduction assay; assay type: functional, organism-based
HT-29 = experiment: Cytotoxicity against human HT-29 cells after 24 hrs by CellTiter-Blue assay; assay type: functional, cell-based; details: HT-29, 24 h
Cutibacterium acnes = experiment: Antibacterial activity against Propionibacterium acnes DSM 1897 after 48 hrs by resazurin reduction assay; assay type: functional, organism-based
NIH3T3 = experiment: Cytotoxicity against mouse NIH/3T3 cells after 24 hrs by CellTiter-Blue assay; assay type: functional, cell-based; details: NIH3T3, 24 h
HepG2 = experiment: Cytotoxicity against human HepG2 cells after 24 hrs by CellTiter-Blue assay; assay type: functional, cell-based; details: HepG2, 24 h
Mammaliicoccus lentus = experiment: Antibacterial activity against Staphylococcus lentus DSM 6672 after 14 to 16 hrs by resazurin reduction assay; assay type: functional, organism-based

Glycogen synthase kinase-3 beta, sequence (P49841 whole entry): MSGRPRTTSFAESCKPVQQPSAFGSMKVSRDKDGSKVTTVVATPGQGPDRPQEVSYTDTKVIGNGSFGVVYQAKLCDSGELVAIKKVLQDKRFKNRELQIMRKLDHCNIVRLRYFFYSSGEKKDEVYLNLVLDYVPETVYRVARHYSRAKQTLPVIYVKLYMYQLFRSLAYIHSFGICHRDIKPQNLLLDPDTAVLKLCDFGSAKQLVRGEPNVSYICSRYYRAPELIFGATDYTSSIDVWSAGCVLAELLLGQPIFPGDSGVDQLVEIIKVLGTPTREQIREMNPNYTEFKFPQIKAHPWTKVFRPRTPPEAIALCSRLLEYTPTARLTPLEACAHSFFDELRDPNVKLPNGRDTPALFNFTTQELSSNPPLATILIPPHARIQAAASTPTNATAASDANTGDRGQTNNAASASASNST
3',5'-cyclic-AMP phosphodiesterase 4B, sequence (Q07343 whole entry): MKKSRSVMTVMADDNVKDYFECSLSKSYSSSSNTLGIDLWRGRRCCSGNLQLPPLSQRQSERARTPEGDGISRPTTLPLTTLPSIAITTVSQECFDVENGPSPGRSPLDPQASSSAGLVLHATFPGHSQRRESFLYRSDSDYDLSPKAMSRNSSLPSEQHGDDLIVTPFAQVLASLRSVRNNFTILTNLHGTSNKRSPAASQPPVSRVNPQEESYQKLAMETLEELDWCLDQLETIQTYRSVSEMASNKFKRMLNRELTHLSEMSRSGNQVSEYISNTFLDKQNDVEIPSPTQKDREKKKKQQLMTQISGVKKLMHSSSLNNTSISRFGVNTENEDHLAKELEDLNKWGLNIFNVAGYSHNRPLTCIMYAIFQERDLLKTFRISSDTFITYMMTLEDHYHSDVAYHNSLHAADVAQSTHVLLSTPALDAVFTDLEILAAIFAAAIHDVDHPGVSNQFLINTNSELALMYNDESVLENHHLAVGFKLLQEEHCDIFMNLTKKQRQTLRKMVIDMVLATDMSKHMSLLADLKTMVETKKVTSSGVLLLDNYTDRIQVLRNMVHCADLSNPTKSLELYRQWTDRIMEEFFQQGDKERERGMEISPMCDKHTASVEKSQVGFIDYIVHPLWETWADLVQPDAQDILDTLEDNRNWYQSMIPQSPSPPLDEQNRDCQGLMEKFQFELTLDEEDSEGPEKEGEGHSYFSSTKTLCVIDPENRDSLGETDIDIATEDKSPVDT

In the case of `CC(=O)O[C@H]1C[C@@H](O)C[C@H](O)C[C@@H](O)[C@@H]2O[C@H]2[C@@H](C)[C@@H]([C@@H](C)[C@@H](O)[C@H](C)[C@@H](O)[C@@H](C)[C@@H](C)O[C@H]2CC[C@H](O[C@@H]3CC[C@@H](OC(=O)[C@H](C)[C@@H](O)/C(C)=C/c4ccc5c(c4)C(=O)C=CC5=O)[C@H](C)O3)[C@H](C)O2)OC(=O)/C=C/[C@H](C)[C@@H](O)C[C@H](O)/C=C/CC[C@@H](C)[C@@H](O)[C@H](O)[C@@]2(O)O[C@@H](C1)C[C@@H](O)[C@@H]2O` [LANGKOLIDE], the IC50 [1] is reported as 480 nM, the Activity (Bacillus subtilis) is reported as “inactive” and the Activity (Xanthomonas campestris) is reported as “inactive”. For the same compound, the IC50 [2] was 2170 nM, the IC50 (Candida albicans) was 1230 nM and the IC50 (Nakaseomyces glabratus) was 1000 nM. The IC50 (HT-29) was 1380 nM, the Activity (Cutibacterium acnes) was “inactive” and the IC50 (NIH3T3) was 490 nM. For the same compound, the IC50 (HepG2) was 2410 nM and the Activity (Mammaliicoccus lentus) was “inactive”.
